The record followed here is patent US9440969B2, “Compounds and methods for kinase modulation, and indications therefor” (PLEXXIKON INC., priority 2009, dated 2016).

Series [1] in a line: Relative solubility by turbidity in aqueous buffers (pH 1.5, 4.5, 6.8, 7.4). Format: physicochemical. Particulars: for turbidity threshold (L, M, H) 1.4: pH 1.5 buffer (SGF); for turbidity threshold (L, M, H) 4.5: pH 4.5 buffer (SIF); for turbidity threshold (L, M, H) 6.8: pH 6.8 buffer (SIF); for turbidity threshold (L, M, H) 7.4: pH 7.4 buffer (HEPES). The protocol:
As an indication of relative solubility, the turbidity of compounds in aqueous solutions is assessed. To assess possible compound properties in different physiological compartments, such as stomach, intestine, and blood, a series of aqueous buffers with varying pH is used. Thus each compound is diluted into four different physiologically relevant buffers and solution turbidity is measured by spectrophotometry.
Compounds are dissolved at a concentration of 25 mM in dimethyl sulfoxide, then serially diluted 1:1 into a 96 well plate, diluting 10 times in pure dimethyl sulfoxide, with the final well of each row a dimethyl sulfoxide blank. In an assay plate, 99 μL of appropriate buffer is added to each well, and 1 μL of each sample dilution is added to the buffer, achieving a range of final total concentrations in aqueous solutions having different pH. The buffers used are Simulated Gastric Fluid (SGF-pH 1.5) 0.5M NaCl, pH 1.5; Simulated Intestinal fluid (SIF-pH 4.5 and pH 6.8) 0.05M NaH2PO4, pH 4.5 and 6.8; and Hepes Buffer (HEPES-pH 7.4) 10 mM HEPES, 150 mM NaCl, pH 7.4. Control compounds pyrene, estriol and propranolol HCl are also assessed. Plates are spun and then mixed for 1 minute, and the absorbance is read using a Tecan Safire II to read wavelengths in the visible range (490, 535, and 650 nm) at four locations per well, reflecting the degree of turbidity present. The average optical density for each wavelength in each well is graphed vs. compound concentration, and the concentration at which the curve crosses a threshold O.D. of 0.01 for each wavelength is reported as the endpoint turbidity assay result. The average of the three wavelengths is used to compare turbidity of compounds. Compounds are considered to have low solubility if the threshold concentration is <31.3 μM, moderate solubility if the threshold concentration is 31.3 μM to 250 μM, and high solubility if the threshold concentration is >250 μM.
The following table indicates the relative solubility (L=low, M=moderate, H=high) based on turbidity threshold concentration at each pH for exemplary compounds according to the invention: […]

The target in series [2] is CYP2C19 (Homo sapiens, UniProt P33261). As to the kind of experiment: CYP2C19 inhibition (fluorescent substrate CEC). The note with it: read-out: Cyp IC50 (μM) 2C19. Format: in vitro ADME. As for the experimental part:
(§1) CYP (Cytochrome P450) enzymes are the major drug metabolizing enzymes present in the liver. The inhibition of CYP enzyme activity (IC50) for each of CYP1A2, CYP2C19, CYP2C9, CYP2D6, CYP3A4(BFC) and CYP3A4(BQ) is determined for compounds, where inhibition of metabolism of a known substrate leads to a decrease in the fluorescence of the metabolized product. The fluorescence of the product is monitored as a function of compound concentration. Compounds are dissolved in dimethyl sulfoxide to a concentration of 100 mM. These are diluted […], into 82 μL of acetonitrile. An 11 μL aliquot of this solution is then added to 204 μL of cofactor mix (1.3% NADPH Regeneration system Solution A, 1.04% NADPH Regeneration system Solution B from BD Biosciences, 5% acetonitrile and 0.05% dimethyl sulfoxide). These are then serially diluted 1:1 (160 μL to 160 μL co-factor mix) for a total of 10 points. A 10 μL aliquot of this final mixture is dispensed into 384 well assay plates and incubated for 10 minutes at 37° C. Enzyme and substrate mix (10 μL; 0.5 pmol CYP1A2/5 μM CEC; 1.0 pmol CYP2C9/75 μM MFC; 0.5 pmol CYP2C19/25 μM CEC; 1.5 pmol CYP2D6/1.5 μM AMMC; 1.0 pmol CYP3A4/50 μM BFC; or 1.0 pmol CYP3A4/40 μM BQ) is added to these assay plates. Assay plates are incubated at 37° C. (CYP1A2-15 min; CYP2C9-45 min; CYP2C19, 2D6 and 3A4-30 min) and read in a Tecan Safire 2 plate reader (CYP1A2, 2C19 and 3A4 409 ex/460 em; CYP2C9 and 2D6 409 ex/530 em). The signal versus compound concentration is used to determine the IC50. The enzymes and substrates for this assay are obtained from BD Biosciences.

Series [3] deals with CYP3A4(BQ) (Homo sapiens, UniProt P08684). Nature of the series: CYP3A4 inhibition (substrate BQ). The note with it: read-out: Cyp IC50 (μM) 3A4(BQ). Format: in vitro ADME. As for the experimental part:
as §1

The target of series [4] is CYP2C9 (Homo sapiens, UniProt P11712). As to the kind of experiment: CYP2C9 inhibition (fluorescent substrate MFC). It counts as in vitro ADME. The note with it: read-out: Cyp IC50 (μM) 2C9. The protocol:
as §1

The target of series [5] is T1, CYP1A2 (Homo sapiens, UniProt P05177).
T1 sequence (P05177 1-516): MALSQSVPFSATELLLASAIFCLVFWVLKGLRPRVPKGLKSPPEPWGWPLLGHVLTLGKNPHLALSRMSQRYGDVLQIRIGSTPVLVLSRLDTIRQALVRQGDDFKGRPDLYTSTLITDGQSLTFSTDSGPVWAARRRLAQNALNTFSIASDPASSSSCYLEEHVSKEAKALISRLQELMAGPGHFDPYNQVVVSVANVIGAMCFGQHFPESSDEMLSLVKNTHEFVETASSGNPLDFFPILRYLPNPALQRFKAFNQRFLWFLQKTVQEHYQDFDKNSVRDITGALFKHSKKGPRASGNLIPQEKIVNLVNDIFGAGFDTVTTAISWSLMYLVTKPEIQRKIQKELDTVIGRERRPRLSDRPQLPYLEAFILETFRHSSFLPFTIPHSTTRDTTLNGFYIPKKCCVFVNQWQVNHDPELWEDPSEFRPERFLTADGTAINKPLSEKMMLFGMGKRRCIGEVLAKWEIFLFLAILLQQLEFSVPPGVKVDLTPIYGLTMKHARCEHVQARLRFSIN
As to the kind of experiment: CYP1A2 inhibition (fluorescent substrate CEC). Format: in vitro ADME. The note with it: read-out: Cyp IC50 (μM) 1A2. As for the experimental part:
as §1

The target in series [6] is CYP2D6 (Homo sapiens, UniProt P10635). As to the kind of experiment: CYP2D6 inhibition (fluorescent substrate AMMC). Format: in vitro ADME. The note with it: read-out: Cyp IC50 (μM) 2D6. The protocol: as §1
Sequence of CYP2D6 (P10635 whole entry): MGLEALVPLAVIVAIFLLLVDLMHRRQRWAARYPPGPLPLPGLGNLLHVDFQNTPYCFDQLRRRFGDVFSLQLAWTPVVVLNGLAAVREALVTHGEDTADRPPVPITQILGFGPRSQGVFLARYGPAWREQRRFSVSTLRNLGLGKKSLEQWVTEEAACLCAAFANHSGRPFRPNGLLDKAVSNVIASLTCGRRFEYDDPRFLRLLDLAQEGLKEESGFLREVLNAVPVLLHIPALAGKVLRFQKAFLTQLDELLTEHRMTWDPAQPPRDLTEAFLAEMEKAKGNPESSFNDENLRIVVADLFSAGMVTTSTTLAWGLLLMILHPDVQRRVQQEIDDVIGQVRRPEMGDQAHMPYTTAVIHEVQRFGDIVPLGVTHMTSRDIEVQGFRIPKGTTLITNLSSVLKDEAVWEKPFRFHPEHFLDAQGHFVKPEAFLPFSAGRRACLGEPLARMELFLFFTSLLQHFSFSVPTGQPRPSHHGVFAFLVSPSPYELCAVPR
Series [7] deals with CYP3A4(BFC) (Homo sapiens, UniProt P08684). As to the kind of experiment: CYP3A4 inhibition (substrate BFC). It counts as in vitro ADME. The note with it: read-out: Cyp IC50 (μM) 3A4(BFC). The protocol: as §1
Sequence of CYP3A4(BFC) (P08684 whole entry): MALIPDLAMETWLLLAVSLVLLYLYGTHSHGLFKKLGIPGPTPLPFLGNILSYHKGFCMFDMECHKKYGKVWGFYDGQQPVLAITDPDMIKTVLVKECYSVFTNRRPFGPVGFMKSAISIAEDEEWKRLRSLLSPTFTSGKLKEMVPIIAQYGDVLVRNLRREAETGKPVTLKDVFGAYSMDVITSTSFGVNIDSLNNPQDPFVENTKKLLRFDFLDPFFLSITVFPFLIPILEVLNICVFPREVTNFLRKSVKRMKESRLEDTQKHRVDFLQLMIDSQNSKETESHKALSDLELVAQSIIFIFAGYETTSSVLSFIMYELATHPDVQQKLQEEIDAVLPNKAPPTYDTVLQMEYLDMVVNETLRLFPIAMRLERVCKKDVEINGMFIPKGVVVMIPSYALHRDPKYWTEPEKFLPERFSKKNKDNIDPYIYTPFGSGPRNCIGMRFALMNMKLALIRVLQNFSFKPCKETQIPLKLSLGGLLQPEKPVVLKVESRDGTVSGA
The target in series [8] is c-Raf-1 (Homo sapiens, UniProt P04049). Nature of the series: c-Raf-1 kinase activity assay (AlphaScreen, biotin-MEK1 substrate). Particulars: 100 μM ATP, 100 nM biotin-MEK1, 45 minutes at room temperature; read-out: Biochemical activity (IC50 μM) c-Raf-1. A digest of the protocol:
(§2)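 AlphaScreen detection of phospho-MEK1 uses anti-phospho-MEK1/2 antibody and donor/acceptor beads, incubated 3 h. The kinase step runs 45 min at room temperature with 0.1 ng enzyme, 100 nM biotin-MEK1 and 100 μM ATP in 50 mM HEPES pH 7.0. IC50 is derived from eight compound concentrations.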
On the technique in general: In Alpha technology, singlet oxygen from a donor bead excites a nearby acceptor bead.

Series [9] deals with B-Raf (Homo sapiens, UniProt P15056). Nature of the series: B-Raf kinase activity assay (AlphaScreen, biotin-MEK1 substrate). The note with it: 100 μM ATP, 100 nM biotin-MEK1, 45 minutes at room temperature; read-out: Biochemical activity (IC50 μM) B-Raf. The essentials: as §2
Sequence of B-Raf (P15056 whole entry): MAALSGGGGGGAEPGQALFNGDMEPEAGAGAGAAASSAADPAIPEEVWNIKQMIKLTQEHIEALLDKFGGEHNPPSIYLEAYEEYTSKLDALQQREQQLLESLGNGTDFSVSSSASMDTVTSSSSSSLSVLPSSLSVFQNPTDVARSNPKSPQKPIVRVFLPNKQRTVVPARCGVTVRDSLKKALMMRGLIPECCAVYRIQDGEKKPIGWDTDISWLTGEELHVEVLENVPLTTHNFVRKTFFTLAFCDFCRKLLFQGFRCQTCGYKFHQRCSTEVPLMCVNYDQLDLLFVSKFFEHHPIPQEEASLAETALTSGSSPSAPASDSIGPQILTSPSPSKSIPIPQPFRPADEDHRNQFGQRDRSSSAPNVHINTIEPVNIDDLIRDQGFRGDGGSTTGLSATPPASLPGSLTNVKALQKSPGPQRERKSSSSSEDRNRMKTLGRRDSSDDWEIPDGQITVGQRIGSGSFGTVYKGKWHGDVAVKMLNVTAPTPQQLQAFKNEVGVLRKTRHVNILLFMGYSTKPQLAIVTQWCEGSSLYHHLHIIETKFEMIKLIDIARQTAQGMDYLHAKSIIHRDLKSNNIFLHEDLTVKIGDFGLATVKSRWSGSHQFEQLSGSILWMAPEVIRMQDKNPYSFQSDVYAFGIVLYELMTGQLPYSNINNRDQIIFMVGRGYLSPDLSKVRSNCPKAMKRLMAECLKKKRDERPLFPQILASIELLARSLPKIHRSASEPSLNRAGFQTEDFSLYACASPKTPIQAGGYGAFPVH
Series [10] concerns the target B-Raf V600E (Homo sapiens, UniProt P15056, V600E). As to the kind of experiment: B-Raf V600E kinase activity assay (AlphaScreen, biotin-MEK1 substrate). The note with it: 100 μM ATP, 100 nM biotin-MEK1, 45 minutes at room temperature, read-out: Biochemical activity (IC50 μM) V600E. A digest of the protocol:
as §2

Molecules are shown by their SMILES.

Sequence of CYP2C9 (P11712 whole entry): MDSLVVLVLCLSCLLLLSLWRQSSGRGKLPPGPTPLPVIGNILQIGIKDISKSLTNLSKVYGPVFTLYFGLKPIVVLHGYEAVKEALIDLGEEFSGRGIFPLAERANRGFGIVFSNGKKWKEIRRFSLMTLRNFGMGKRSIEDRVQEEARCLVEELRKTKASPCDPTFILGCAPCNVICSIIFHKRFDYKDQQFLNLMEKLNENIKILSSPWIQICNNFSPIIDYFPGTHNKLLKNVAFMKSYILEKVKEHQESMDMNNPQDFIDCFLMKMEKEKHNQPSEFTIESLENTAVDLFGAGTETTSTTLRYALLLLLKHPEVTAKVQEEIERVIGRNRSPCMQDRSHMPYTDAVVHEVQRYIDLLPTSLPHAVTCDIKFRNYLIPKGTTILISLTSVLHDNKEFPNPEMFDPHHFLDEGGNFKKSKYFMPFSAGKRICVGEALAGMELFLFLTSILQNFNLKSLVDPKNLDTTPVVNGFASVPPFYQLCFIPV
Sequence of CYP3A4(BQ) (P08684 whole entry): as the sequence (P08684 whole entry) above
Sequence of CYP2C19 (P33261 whole entry): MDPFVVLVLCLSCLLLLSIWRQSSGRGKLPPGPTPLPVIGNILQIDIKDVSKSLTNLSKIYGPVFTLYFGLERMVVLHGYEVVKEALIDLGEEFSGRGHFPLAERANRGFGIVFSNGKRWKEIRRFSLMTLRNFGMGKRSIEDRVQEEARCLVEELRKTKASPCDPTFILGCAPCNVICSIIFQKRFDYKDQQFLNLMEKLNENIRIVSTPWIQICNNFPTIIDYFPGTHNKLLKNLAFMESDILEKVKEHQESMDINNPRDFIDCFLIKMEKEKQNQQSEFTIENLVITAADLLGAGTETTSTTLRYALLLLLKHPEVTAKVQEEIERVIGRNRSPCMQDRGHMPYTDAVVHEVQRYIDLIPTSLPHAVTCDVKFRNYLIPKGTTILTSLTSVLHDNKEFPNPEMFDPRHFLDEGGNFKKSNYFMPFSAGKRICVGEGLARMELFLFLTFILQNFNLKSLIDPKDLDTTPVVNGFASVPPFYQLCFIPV
Sequence of c-Raf-1 (P04049 whole entry Y340D/Y341D, form open): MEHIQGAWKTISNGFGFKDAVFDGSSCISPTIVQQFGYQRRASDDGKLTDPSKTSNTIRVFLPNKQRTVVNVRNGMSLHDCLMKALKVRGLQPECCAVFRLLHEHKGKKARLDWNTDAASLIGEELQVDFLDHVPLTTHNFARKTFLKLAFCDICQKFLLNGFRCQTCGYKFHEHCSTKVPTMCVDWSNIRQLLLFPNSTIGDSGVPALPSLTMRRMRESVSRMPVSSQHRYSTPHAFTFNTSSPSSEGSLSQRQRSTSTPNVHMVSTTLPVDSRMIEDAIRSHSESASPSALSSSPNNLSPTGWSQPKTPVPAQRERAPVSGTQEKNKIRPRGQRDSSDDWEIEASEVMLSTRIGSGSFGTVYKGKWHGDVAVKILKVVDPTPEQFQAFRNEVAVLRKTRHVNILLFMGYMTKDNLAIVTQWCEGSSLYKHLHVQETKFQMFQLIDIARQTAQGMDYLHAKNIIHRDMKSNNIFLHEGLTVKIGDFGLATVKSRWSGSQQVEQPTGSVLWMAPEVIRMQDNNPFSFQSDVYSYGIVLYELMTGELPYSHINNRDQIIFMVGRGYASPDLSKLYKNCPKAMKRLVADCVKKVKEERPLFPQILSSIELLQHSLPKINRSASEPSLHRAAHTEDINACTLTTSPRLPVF
Sequence of B-Raf V600E (P15056 whole entry V600E): as the sequence (P15056 whole entry) above, with V600E counted along it

As a reminder, the IC50 is the point on the concentration scale where inhibition reaches its midpoint. Regarding `CCCS(=O)(=O)Nc1ccc(F)c(C(=O)c2c[nH]c3ncc(-c4ccc5cccnc5c4)cc23)c1F` [P-0033, Propane-1-sulfonic acid [2,4-difluoro-3-(5-quinolin-7-yl-1H-pyrrolo[2,3-b]pyridine-3-carbonyl)-phenyl]-amide], the “turbidity threshold (L, M, H) 1.4” value in series [1] was “L (low solubility if the threshold concentration is <31.3 μM)”. Also, in series [1], the “turbidity threshold (L, M, H) 4.5” value was “L (low solubility if the threshold concentration is <31.3 μM)”. Besides, the “turbidity threshold (L, M, H) 6.8” value in [1] is given as “L (low solubility if the threshold concentration is <31.3 μM)”. In addition, the “turbidity threshold (L, M, H) 7.4” value in series [1] is listed as “L (low solubility if the threshold concentration is <31.3 μM)”. Further, the 50% inhibitory concentration (IC50) in [2] was below 5 µM; in series [3] it was above 10 µM; in series [4], above 10 µM; in series [5], above 10 µM; in [6], above 10 µM; in series [7], above 10 µM.

As for `CCCS(=O)(=O)Nc1ccc(F)c(C(=O)c2c[nH]c3ncc(-c4cnn(C5CCN(C(=O)OC(C)(C)C)CC5)c4)cc23)c1F` [P-1001, 4-(4-{3-[2,6-Difluoro-3-(propane-1-sulfonylamino)-benzoyl]-1H-pyrrolo[2,3-b]pyridin-5-yl}-pyrazol-1-yl)-piperidine-1-carboxylic acid tert-butyl ester], in series [1], the “turbidity threshold (L, M, H) 1.4” value is given as “M (moderate solubility if the threshold concentration is 31.3 μM to 250 μM)”. Further, the “turbidity threshold (L, M, H) 4.5” value in [1] was “L (low solubility if the threshold concentration is <31.3 μM)”. Also, the “turbidity threshold (L, M, H) 6.8” value in series [1] is given as “M (moderate solubility if the threshold concentration is 31.3 μM to 250 μM)”. Also, the “turbidity threshold (L, M, H) 7.4” value in series [1] is listed as “L (low solubility if the threshold concentration is <31.3 μM)”. The IC50 is 5 to 10 µM in series [2]; above 10 µM in [3]; below 0.1 µM in [8]; above 10 µM in [4]; above 10 µM in series [5]; above 10 µM in series [6]. In series [7], the IC50 was 5 to 10 µM.

As to `COc1ccc(-c2cnc3[nH]cc(C(=O)c4c(F)ccc(NS(=O)(=O)c5cc(F)ccc5F)c4F)c3c2)cn1` [P-1404, N-{2,4-Difluoro-3-[5-(6-methoxy-pyridin-3-yl)-1H-pyrrolo[2,3-b]pyridine-3-carbonyl]-phenyl}-2,5-difluoro-benzenesulfonamide], the IC50 was above 10 µM in series [2]; above 10 µM in series [3]; below 0.1 µM in series [8]; above 10 µM in [4]; below 0.1 µM in [9]; above 10 µM in series [5]. The IC50 in series [10] was below 0.1 µM; in [6], above 10 µM; in [7], above 10 µM.

For `O=C(c1c(F)ccc(NS(=O)(=O)c2cc(F)ccc2F)c1F)c1c[nH]c2ncc(-c3cnc(NC4CC4)nc3)cc12` [P-1506, N-{3-[5-(2-Cyclopropylamino-pyrimidin-5-yl)-1H-pyrrolo[2,3-b]pyridine-3-carbonyl]-2,4-difluoro-phenyl}-2,5-difluoro-benzenesulfonamide], the “turbidity threshold (L, M, H) 1.4” value in [1] is listed as “L (low solubility if the threshold concentration is <31.3 μM)”. Further, the “turbidity threshold (L, M, H) 4.5” value in series [1] is given as “L (low solubility if the threshold concentration is <31.3 μM)”. For the same compound, the “turbidity threshold (L, M, H) 6.8” value in series [1] is “L (low solubility if the threshold concentration is <31.3 μM)”. Further, the “turbidity threshold (L, M, H) 7.4” value in series [1] is “L (low solubility if the threshold concentration is <31.3 μM)”. Also, the IC50 in series [2] was above 10 µM; in series [3] it was above 10 µM; in series [4] it was below 5 µM; in series [5], above 10 µM; in series [6], above 10 µM; in series [7] it was below 5 µM.

As to `COc1ncc(-c2cnc3[nH]cc(C(=O)c4cccc(NS(=O)(=O)c5ccccc5F)c4F)c3c2)cn1` [P-1518, 2-Fluoro-N-{2-fluoro-3-[5-(2-methoxy-pyrimidin-5-yl)-1H-pyrrolo[2,3-b]pyridine-3-carbonyl]-phenyl}-benzenesulfonamide], the “turbidity threshold (L, M, H) 1.4” value in [1] is “L (low solubility if the threshold concentration is <31.3 μM)”. Further, in series [1], the “turbidity threshold (L, M, H) 4.5” value is given as “L (low solubility if the threshold concentration is <31.3 μM)”. In [1], the “turbidity threshold (L, M, H) 6.8” value is “L (low solubility if the threshold concentration is <31.3 μM)”. For the same compound, the “turbidity threshold (L, M, H) 7.4” value in [1] is given as “L (low solubility if the threshold concentration is <31.3 μM)”. The IC50 in series [2], in series [3], in [4], in series [5], in series [6] and in [7] was above 10 µM in each case.
